Assays:
TEADs = assay: TEAD-specific 8×GTIIC-luciferase reporter assay; format: cell-based
Description: A series of compounds featuring a chloromethyl ketone moiety were synthesized (Schemes 1-4). The inhibitory rate of this series of compounds was tested using 8×GTIIC-luciferase reporter assay at 10 μM.
Next, the inhibition of TEAD transcription activity of compounds was tested varying the dosage using the 8×GTIIC-luciferase reporter assay. […] The aim was to determine whether its inhibition of TEAD transcription can lead to downregulation of the YAP-TEAD target genes. CTGF is one of the best characterized (bona fide) target gene of YAP and TAZ.
To further investigate the mechanism of the inhibitory effect of compounds in Huh7 cells, TEADs specific luciferase reporter assays were performed with compounds 22 and 12 at several concentrations. […] TEAD downstream gene expression patterns were evaluated in liver cancer cells Huh7, which has been evidenced with relative high expression of YAP and TEAD2.
HEK 293T cells were plated at 2×10^4 cells/well in a 96 well microplate and were transfected with 50 ng of 8×GTIIC-luciferase plasmid (Addgene #34615) and 0.5 ng of pRL-CMV (Promega #E226A) by using lipofectamine 3000 (Life Technologies #L3000). The 8×GTIIc-luciferase reporter is a Yap/Taz-activity reporter containing eight TEAD consensus binding sequences. After 6 h, transfected cells were treated with various concentrations of compounds or DMSO control. Luciferase signals were measured using the Dual Luciferase Reporter Assay System (Promega, E1960) according to the manufacturer's instructions. Experiments were performed in triplicate and repeated at least three times.

Huh7 cells [1] = assay: Apoptosis by Annexin V/PI flow cytometry, Huh7; format: cell-based, human; details: 48 h
Description: In order to gain deeper insights into the underlying anticancer mechanism of compound 22, experiments were performed to validate whether the induction of G1 phase cells by compound 22 was linked to apoptosis. To achieve this, the cells treated with compound 22 were subjected to PI and FITC-annexin V staining to detect apoptotic cells. […] The proportions of total apoptosis including the early stage apoptosis and the later stage of apoptosis were 66.8%, and 83.5%, respectively, at concentrations of 5 and 10 μM. This trend was similarly observed in the case of HepG2 cells. […] The impact of compound 22 on inducing cell apoptosis was less pronounced in HepG2 cells compared to Huh7 cells, aligning with the outcomes of the cell cycle analysis, providing further coherence to the observed effects of compound 22 on these cell lines.
Apoptosis was detected using an Annexin V-FITC apoptosis detection kit (Thermo Fisher Scientific) following the manufacturer’ instructions. Briefly, about 50000 cells were suspended in 500 μl of binding buffer. The cells were incubated with 5 μl FITC-conjugated Annexin V for 15 minutes and incubated with 5 μl propidium Iodide staining solution for 15 minutes in darkness at room temperature. Cell apoptosis was then analyzed by flow cytometry using a FACSCalibur flow cytometer (Becton Dickinson, San Jose, CA).

HB tumors = assay: Murine hepatoblastoma (HB) model, HDTV injection of S127A-YAP1 and ΔN90-β-catenin; format: in vivo, C57BL6 mice
Description: Using this model, the inhibitory effect of YAP inhibitor compound 22 on HB development was examined. In brief, following HDTV injection, the co-expression of constitutively active S127A-YAP1 and ΔN90 deletion-mutant β-catenin (ΔN90-β-catenin) via Sleeping Beauty-mediated somatic integration led to HB development in mouse livers. Plasmids carrying T3EF1α-YAPS127A (20 μg), pCMV-sleeping beauty transposase (SB, 0.8 μg), and pT3-EF1α-ΔN90-β-catenin (20 μg) were extracted using the Endotoxin-Free Maxiprep kit (Qiagen), diluted in 2 ml 0.9% sodium chloride solution, and injected via hydrodynamic tail vein injection (HDTV) into C57BL6 mice (6 week-old, body weight of 20 g). compound 22 or mock control (twice a week for three months, IP injection) were applied two weeks post the HDTV injection until two days before sacrifice. Low dose group received […] body weight and high dose group received […] body weight.
Tissues harvested from mice were fixed in 4% paraformaldehyde PBS solution for 24 hours, embedded in paraffin, and sectioned (6 μm). Standard staining protocols were performed for IHC using an ABC kit from Vector lab (Vector Laboratories, Inc., CA). The primary antibody was mouse anti-Ki67 antibody (catalogNCL-L-Ki67-MM1, 1:100 dilution) from Leica Biosystems (Deer Park, IL). Stained sections were detected using a microscope (Leica, Germany).
For drug assessment in the murine HB model, plasmids carrying T3EF1α-YAPS127A (20 μg), pCMV-sleeping beauty transposase (SB, 0.8 μg), and pT3-EF1α-ΔN90-β-catenin (20 μg) from Addgene (Watertown, MA) were used. The plasmids were extracted using the Endotoxin-Free Maxiprep kit (Qiagen, Redwood City, CA), diluted in 2 ml 0.9% sodium chloride solution, and injected via hydrodynamic tail vein injection (HDTV) into C57BL6 mice (n=15, 6 week old). Three weeks post the HDTV injection, compound 22 ([…] body weight) or mock control were applied twice a week for total 9 weeks via IP injection. Two days post last drug treatment, mice were euthanized and tumor tissues were subjected to molecular and histological characterizations.

CTGF [2] = assay: CTGF mRNA expression by RT-qPCR in Huh7 cells; format: cell-based, human; details: dose-dependent
Description: (§1) Huh7 and HepG2 liver cancer cells were seeded at 1×10^6 cells/dish and allowed to adhere overnight. The cells were then treated with indicated doses of compounds in medium for 24 hours. The cells were then harvested, and total RNA was purified using the Aurum total RNA mini kit (Bio-Rad #732-6820) according to the manufacturer's instructions. Complementary DNA was synthesized from 500 ng total RNA template by iScript reverse transcription kit (Bio-Rad #1725037) according to the manufacturer's instructions. Real-time PCR reactions utilized 60 ng cDNA and PrimePCR primers from Bio-Rad (Unique Assay ID: human GAPDH-qHsaCEP0041396, human CTGF-qHsaCEP0024255, human CYR61-qHsaCEP0024230) designed for SYBR Green gene expression analysis (Bio-Rad #1726270). All reactions were carried out in triplicate using Quant Studio 3 PCR system (Applied Biosystems). Relative gene expression level was quantified via ΔΔCt method by using GAPDH as an endogenous reference.

CTGF [3] = assay: CTGF mRNA expression by RT-qPCR in HepG2 cells; format: cell-based, human; details: dose-dependent
Description: as §1

HepG2 cells = assay: MTT assay, HepG2 survival; format: cell-based, human; details: FIG. 7
Huh7 cells [4] = assay: Apoptosis by calcein AM and ethidium homodimer-1 staining, Huh7; format: cell-based, human

How did the inhibition at 10 µM (TEADs; 10 μM, 8×GTIIC-luciferase, read-out: Luciferase reporter assay inhibitory rate) turn out when `O=C(CCl)c1c[nH]c2cc(Cl)c(OCc3cccc(C(F)(F)F)c3)cc12` [Compound 22, 2-chloro-1-(6-chloro-5-((3-(trifluoromethyl)benzyl)oxy)-1H-indol-3-yl)ethan-1-one] was run?
The inhibition at 10 µM was 93.6%.

And the IC50 (TEADs; dose response, read-out: TEADs transcription inhibition IC50, luciferase reporter assay)?
Its IC50 is 2.1 µM.

What about the “Proportion of total apoptosis (early + late), Huh7” value (Huh7 cells [1]; 5 μM) of the same molecule?
The value was 66.8%.

What about the “Proportion of total apoptosis (early + late), Huh7” value (Huh7 cells [1]; 10 μM) of the same molecule?
Its value is 83.5%.

What about the “HB tumors, occurrence and size” value (HB tumors; 25 mg/kg body weight, twice a week for 9 weeks, IP) of the same molecule?
Its value is “notable reduction in both the occurrence and size of HB tumors”.

What about the “Number of proliferating cells (IHC)” value (HB tumors; 25 mg/kg, Cyclin D1 / Ki67 (FIG. 23B)) of the same molecule?
Its value is “decreased number of proliferating cells”.

And the “Ccnd1, CTGF, Cyr61, Afp, and Gpc3 mRNAs in livers” value (HB tumors; real time qRT-PCR, 25 mg/kg)?
Its value is “lower levels”.

And the “CTGF and Cyr61 proteins in livers” value (HB tumors; western blotting, 25 mg/kg)?
Its value is “decreased CTGF and Cyr61”.

What about the “CTGF mRNA expression, Huh7” value (CTGF [2]) of the same molecule?
The value was “suppressed”.

What about the “CTGF mRNA expression, Huh7” value (CTGF [2]; listed as compound 22) of the same molecule?
The value was “significantly inhibited”.

And the “CTGF mRNA expression, HepG2” value (CTGF [3])?
Its value is “significantly inhibited”.

What about the “HepG2 survival, MTT assay” value (HepG2 cells) of the same molecule?
The value was “inhibits”.

What about the Huh7 cell apoptosis (Huh7 cells [4]) of the same molecule?
Its Huh7 cell apoptosis is “promotes Huh7 cell apoptosis”.

From patent US20260337177A1, “TEAD CORE INHIBITORS FOR CANCER THERAPEUTICS” (University of Florida Research Foundation, Incorporated, priority 2023, published 2026)
